Reference: PubChem BioAssay AID2060512 (Molecular Pharmacology Branch, DTP, NCI, 2025)
Several values for one entry are separate records, joined by “and”; a condition that tells them apart may be missing. Equal entries are not always repeated.

Tested on: 186277-243-T-J2-PDC complex spheroid viability
Test: Anticancer human tumor 186277-243-T-J2-PDC patient-derived colon adenocarcinoma cell line growth inhibition [GQUAD]
Conditions: for viability, T/C: stronger effect = lower value
Text: DNA G-quadruplex Stabilizer Agents in Combinations in Complex Spheroids
A high-throughput screen of multi-cell type tumor spheroids was designed to identify active combinations of DNA G-quadruplex stabilizer agents and targeted small molecules. Complex spheroids include a stromal component modeled by human endothelial cells (HUVEC) and fibroblasts modeled by human mesenchymal stem cells (MSCs). The concentration ranges selected for each drug and investigational agent were based upon clinically achievable concentrations if the clinical Cmax of the agent was known.
Compounds. The drugs and investigational agents: pidnarulex (CX-5461; NSC782164), APTO-253 (NSC789042), BRACO-19 (NSC847499), peposertib (NSC802822), ceralasertib (NSC780249), elimusertib (NSC800525), camonsertib (NSC841442), AZD-1390 (NSC803789), olaparib (NSC753686), talazoparib (NSC767125), ART-558 (NSC835418), sotorasib (NSC818433), MRTX-1133 (NSC836407), SN-38 (NSC673596), topotecan (NSC609699), etoposide (NSC141540), doxorubicin (NSC123127), gemcitabine (NSC613327), 5-fluorouracil (NSC19893), paclitaxel (NSC125973), vemurafenib (NSC761431), panobinostat (NSC761190), R-306465 (JNJ-16241199; NSC773264), adavosertib (NSC754352), TP-3654 (NSC805149), carboplatin (NSC241240), KSQ-4279 (NSC840948), and staurosporine (NSC755774) were obtained from the National Cancer Institute (NCI) Developmental Therapeutics Program Chemical Repository (34). The FDA-approved anticancer drug set is available from the NCI Developmental Therapeutics Program. […] The stock solutions were prepared in dimethyl sulfoxide (DMSO, Sigma-Aldrich, St. Louis, MO, cat. D2650) at 800-fold the tested concentration and stored at -70 degrees C prior to their use. All drugs and investigational agents were tested over a range starting from a high concentration at or near the clinical Cmax and decreasing in half-log increments. If the clinical Cmax for an agent had not been determined, the highest concentration tested was 10 microM.
2.3 Cell Culture. All cells were maintained in an incubator at 37 degrees C and 5% CO2 with 95% humidity. The PDC lines were cultured according to standard operating procedures established by the NCI PDMR. All PDCs were thawed and cultured in Matrigel-coated flasks prepared with a working solution of 1X Ham's F-12 nutrient mix, without supplementation (Invitrogen, cat. 11765054), 100 U/mL penicillin-streptomycin (Invitrogen, cat. 15140122), and 2.5% Matrigel (Corning Inc., cat. 354248) for the first three passages. The 857933-349-R-J2-PDC line was cultured in 6C/Colon 1B media, which includes advanced DMEM/F-12 (Thermo Fisher Scientific, cat. 12634028), 10 mM HEPES (Thermo Fisher Scientific, cat. 15630080), 1X GlutaMAX supplement (Thermo Fisher Scientific, cat. 35050061), 0.1 mg/mL primocin (InvivoGen, cat. ant-pm-2), 10% defined fetal bovine serum, heat inactivated (HyClone Laboratories Inc., cat. SH30070.03HI), 50% L-WRN conditioned media (ATCC, cat. CRL-3276), 1.25 mM N-Acetyl-L-cysteine (Sigma-Aldrich, cat. A9165), 10 mM nicotinamide (Sigma-Aldrich, cat. N0636), 1X B-27 supplement (Thermo Fisher Scientific, cat. 17504044), 1X N-2 supplement (Thermo Fisher Scientific, cat. 17502048), 10 microM Y-27632 dihydrochloride (Tocris Bioscience, cat. 1254), and 50 ng/mL human EGF recombinant protein (Thermo Fisher Scientific, cat. PHG0311). The 485176-168-R4-J1-PDC line was cultured in Panc media, which includes all 6C/Colon 1B media components plus 100 ng/mL human FGF-10 (Thermo Fisher Scientific, cat. 100-26), 500 nM SB-431542 (Selleckchem, cat. S1067), and gastrin (Tocris, cat. 3006).
[…]
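Also: spheroids exposed to drugs for 7 days.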
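For viability, T/C in this document: 100% = DMSO vehicle control viability.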

Question: How did the viability, T/C (compound 0.0316 µM) turn out when `Cc1cnc(CNC(=O)c2c(=O)c3ccc(N4CCCN(C)CC4)nc3n3c2sc2ccccc23)cn1` was run?
Answer: 97.7% [middle of 12 runs]

Question: What about the viability, T/C (compound 0.316 µM) of the same molecule?
Answer: 76.8% [middle of 12 runs]

Question: What about the viability, T/C (compound 1 µM) of the same molecule?
Answer: 61.5% [middle of 12 runs]

Question: What about the viability, T/C (compound 3.16 µM) of the same molecule?
Answer: 43.7% [middle of 12 runs]

Question: What about the viability, T/C (compound 10 µM) of the same molecule?
Answer: 39.7% [middle of 12 runs]

Question: What about the IC50 (compound alone, run of 04/16/2024) of the same molecule?
Answer: 2.36 µM [middle of 12 runs]

Question: `CCCS(=O)(=O)Nc1ccc(F)c(C(=O)c2c[nH]c3ncc(-c4ccc(Cl)cc4)cc23)c1F` was tested. Which viability, T/C (compound 0.0316 µM) did it give?
Answer: 111% and 99.7% and 103%

Question: And the viability, T/C (compound 0.1 µM)?
Answer: 114% and 101% and 82.2%

Question: And the viability, T/C (compound 0.316 µM)?
Answer: 91.7% and 97.9% and 81.8%

Question: What about the viability, T/C (compound 1 µM) of the same molecule?
Answer: 92.4% and 78.4% and 81.4%

Question: What about the viability, T/C (compound 3.16 µM) of the same molecule?
Answer: 94.7% and 87.6% and 78.3%

Question: What about the viability, T/C (compound 10 µM) of the same molecule?
Answer: 22.4% and 25.9% and 24.6%

Question: And the IC50 (curve of compound)?
Answer: 6.35 µM and 6.16 µM and 5.69 µM

Question: With `COc1ccc([C@@H](O)c2cc(-c3ncnc4cc(N5CCOCC5)ccc34)c(F)cc2Cl)nn1` + CN(C)c1ccc(Nc2c3ccc(NC(=O)CCN4CCCC4)cc3nc3cc(NC(=O)CCN4CCCC4)ccc23)cc1 as the molecule, how does the IC50 (curve of first compound, second compound 0.0316 µM) read?
Answer: 3.94 µM

Question: And the IC50 (curve of first compound, second compound 0.1 µM)?
Answer: 5.03 µM

Question: And the IC50 (curve of first compound, second compound 0.316 µM)?
Answer: 4.1 µM

Question: What about the IC50 (curve of first compound, second compound 1 µM) of the same molecule?
Answer: 4.45 µM

Question: And the IC50 (curve of first compound, second compound 3.16 µM)?
Answer: 4.33 µM

Question: What about the IC50 (curve of first compound, second compound 10 µM) of the same molecule?
Answer: 2.31 µM

Question: And the viability, T/C (second compound 0.0316 µM, first compound 0.0316 µM)?
Answer: 102%

Question: What about the viability, T/C (second compound 0.0316 µM, first compound 0.1 µM) of the same molecule?
Answer: 102%

Question: What about the viability, T/C (second compound 0.0316 µM, first compound 0.316 µM) of the same molecule?
Answer: 117%

Question: And the viability, T/C (second compound 0.0316 µM, first compound 1 µM)?
Answer: 75.9%

Question: And the viability, T/C (second compound 0.0316 µM, first compound 3.16 µM)?
Answer: 59.8%

Question: And the viability, T/C (second compound 0.0316 µM, first compound 10 µM)?
Answer: 26.2%

Question: What about the viability, T/C (second compound 0.1 µM, first compound 0.0316 µM) of the same molecule?
Answer: 112%

Question: And the viability, T/C (second compound 0.1 µM, first compound 0.1 µM)?
Answer: 96%

Question: And the viability, T/C (second compound 0.1 µM, first compound 0.316 µM)?
Answer: 90.1%

Question: What about the viability, T/C (second compound 0.1 µM, first compound 1 µM) of the same molecule?
Answer: 85.2%

Question: What about the viability, T/C (second compound 0.1 µM, first compound 3.16 µM) of the same molecule?
Answer: 73.3%

Question: What about the viability, T/C (second compound 0.1 µM, first compound 10 µM) of the same molecule?
Answer: 22.5%

Question: And the viability, T/C (second compound 0.316 µM, first compound 0.0316 µM)?
Answer: 95%

Question: And the viability, T/C (second compound 0.316 µM, first compound 0.1 µM)?
Answer: 92.7%

Question: And the viability, T/C (second compound 0.316 µM, first compound 0.316 µM)?
Answer: 104%

Question: And the viability, T/C (second compound 0.316 µM, first compound 1 µM)?
Answer: 82.3%

Question: And the viability, T/C (second compound 0.316 µM, first compound 3.16 µM)?
Answer: 57.8%

Question: And the viability, T/C (second compound 0.316 µM, first compound 10 µM)?
Answer: 26.3%

Question: What about the viability, T/C (second compound 1 µM, first compound 0.0316 µM) of the same molecule?
Answer: 86.5%

Question: What about the viability, T/C (second compound 1 µM, first compound 0.1 µM) of the same molecule?
Answer: 93.2%

Question: And the viability, T/C (second compound 1 µM, first compound 0.316 µM)?
Answer: 89.2%

Question: And the viability, T/C (second compound 1 µM, first compound 1 µM)?
Answer: 110%

Question: What about the viability, T/C (second compound 1 µM, first compound 3.16 µM) of the same molecule?
Answer: 62.8%

Question: What about the viability, T/C (second compound 1 µM, first compound 10 µM) of the same molecule?
Answer: 19.9%

Question: And the viability, T/C (second compound 3.16 µM, first compound 0.0316 µM)?
Answer: 98.3%

Question: What about the viability, T/C (second compound 3.16 µM, first compound 0.1 µM) of the same molecule?
Answer: 87.5%

Question: And the viability, T/C (second compound 3.16 µM, first compound 0.316 µM)?
Answer: 108%

Question: And the viability, T/C (second compound 3.16 µM, first compound 1 µM)?
Answer: 96.4%

Question: And the viability, T/C (second compound 3.16 µM, first compound 3.16 µM)?
Answer: 61.1%

Question: And the viability, T/C (second compound 3.16 µM, first compound 10 µM)?
Answer: 20.4%

Question: And the viability, T/C (second compound 10 µM, first compound 0.0316 µM)?
Answer: 91.3%

Question: What about the viability, T/C (second compound 10 µM, first compound 0.1 µM) of the same molecule?
Answer: 88.1%

Question: What about the viability, T/C (second compound 10 µM, first compound 0.316 µM) of the same molecule?
Answer: 111%

Question: And the viability, T/C (second compound 10 µM, first compound 1 µM)?
Answer: 81.1%

Question: And the viability, T/C (second compound 10 µM, first compound 3.16 µM)?
Answer: 37.9%

Question: What about the viability, T/C (second compound 10 µM, first compound 10 µM) of the same molecule?
Answer: 7.76%
